For 13 compounds, IC50 results are on record in patent US6949566B2, “Thiazole and oxazole derivatives” (Shionogi & Co. Ltd., priority 2000, dated 2005).

Type in all cases: biochemical
Assay [1] concerns the target T1, MMP-8 (Homo sapiens, UniProt P22894).
T1 construct: catalytic domain (^99Phe˜^262Gly) was amplified with PCR; His-tag; enterokinase digestion-site; made in house; host or cells: Escherichia coli
Briefly: Assay for inhibitory activities on MMPs (fluorogenic peptide substrate), MMP-8. To be noted: catalytic domain 99Phe-262Gly; substrate MOCAc-Pro-Leu-Gly-Leu-A2Pr(DNP)-Ala-Arg-NH2. The source says:
In regard to MMP-8, catalytic domain (^99Phe˜^262Gly) was amplified with PCR using commercial available Human Bone Marrow cDNA. This was cloned in Escherichia. coli expression vector pTrc99AHE inserted with His-tag sequence and enterokinase digestion-site, induced and expressed by IPTG (Isopropyl-β-D-thiogalactopyranoside) and expressed in a insoluble fraction (Thau F. Ho, M. Walid Qoronfleh, Robert C. Wahl, Trica A. Pulvino, Karen J. Vavra, Joe Falvo, Tracey M. Banks, Patricia G. Brake and Richard B. Ciccarelli: Gene expression, purification and characterization of recombinant human neutrophil collagenase. Gene 146, (1994) 297-301, Prepared by the a improved method of this material). Isolation of MMP-8 from an insoluble fraction was carried out by dissolving in modifier (6M urea) by a usual method and purification with metal chelate chromatography. And then removing modifier (6M urea) with dialysis and refolding of the enzyme spontaneously gave activated MMP-8.
(§1) The enzymatic activity on MMPs was analyzed by the method described in “C. Graham Knight, Frances Willenbrock and Gillian Murphy: A novel coumarin-labelled peptide for sensitive continuous assays of the matrix metalloproteinases: FEBS LETT., 296, (1992), 263-266”. The substrate MOCAc-Pro-Leu-Gly-Leu-A2Pr(DNP)-Ala-Arg-NH2 was purchased from Peptide Institute, Inc., Osaka, Japan. The measurement of the inhibitory activities (IC50) was carried out by the following four methods;
(§2) (A) Reaction with substrate, enzyme (MMPs) and inhibitor
(§3) (B) Reaction with substrate and inhibitor, without enzyme
(§4) (C) Reaction with substrate and enzyme (MMPs), without inhibitor
(§5) (D) Reaction with substrate only
(§6) IC50 values were calculated by using the following formula and each fluorescence values of above four methods (A to D). % inhibition={1−(A−B)/(C−D)}×100 IC50 means the concentration required to inhibit 50% of the enzyme activity.

Assay [2] concerns the target T2, MMP-2 (Homo sapiens, UniProt P08253).
T2 construct: purchased Calbiochem-Novabiochem International, Inc
T2 sequence (P08253 110-660): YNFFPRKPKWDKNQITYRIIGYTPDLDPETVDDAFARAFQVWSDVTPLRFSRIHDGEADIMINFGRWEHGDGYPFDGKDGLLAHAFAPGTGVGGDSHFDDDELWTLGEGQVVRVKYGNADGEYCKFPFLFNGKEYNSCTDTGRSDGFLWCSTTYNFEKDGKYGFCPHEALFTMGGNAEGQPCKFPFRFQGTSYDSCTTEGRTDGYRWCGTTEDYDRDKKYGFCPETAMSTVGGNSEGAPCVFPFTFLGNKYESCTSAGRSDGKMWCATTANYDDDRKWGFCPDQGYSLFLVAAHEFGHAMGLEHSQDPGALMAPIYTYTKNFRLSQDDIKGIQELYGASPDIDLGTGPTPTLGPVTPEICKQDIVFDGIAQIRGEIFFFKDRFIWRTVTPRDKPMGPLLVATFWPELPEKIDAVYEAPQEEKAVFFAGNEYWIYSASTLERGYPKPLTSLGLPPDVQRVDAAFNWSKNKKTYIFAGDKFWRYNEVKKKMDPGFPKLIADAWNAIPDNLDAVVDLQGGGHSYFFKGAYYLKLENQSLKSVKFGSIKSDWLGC
Briefly: Assay for inhibitory activities on MMPs (fluorogenic peptide substrate), MMP-2. The settings on record: purchased MMP-2; substrate MOCAc-Pro-Leu-Gly-Leu-A2Pr(DNP)-Ala-Arg-NH2. As for the experimental part: MMP-2 was purchased from Calbiochem-Novabiochem International, Inc.
as §1, §2, §3, §4, §5, §6

Assay [3] concerns the target T3, MMP-9 (Homo sapiens, UniProt P14780).
T3 construct: endogenous in cells; host or cells: HT1080 human fibrosarcoma cells, TPA-stimulated; enzyme purified from conditioned medium
Briefly: Assay for inhibitory activities on MMPs (fluorogenic peptide substrate), MMP-9. To be noted: MMP-9 from HT1080 cells, activated by TPCK-Trypsin; substrate MOCAc-Pro-Leu-Gly-Leu-A2Pr(DNP)-Ala-Arg-NH2.
Source text: MMP-9 was isolated and purified by procedures described in as follows: Yasunori Okada, Yukio Gonoji, Katsumi Naka, Katsuro Tomita, Isao Nakanishi, Kazushi Iwata, Kyoko Yamashita, and Taro Hayakawa: Matrix metalloproteinase 9 (92-kDa gelatinase/type IV collagenase) from HT1080 human fibrosarcoma cells. Purification and activation of the precursor and enzymic properties J. Biol. Chem., 1992, 267 21712-21719, in combination with others: 1)Yasunori Okada, Tatsuhisa Morodomi, Jan J, Enghild, ko Suzuki, Atsushi Yasui, Isao Nakanishi, Guy Salvesen and Hideaki Nagase: Matrix metalloproteinase 2 from human rheumatoid synovial fibroblasts. Purification and activation of the precursor and enzymic properties. Eur. J. Biochem. 1990, 194 721-730; 2)Robin V Ward, Rosalind M Hembry, John J Reynolds and Gillian Murphy: The purification of tissue inhibitor of metalloproteinase-2 from its 72 kDa progelatinase complex. Biochem. J. 1991 278 179-187. In detail, human fibrosarcoma ATCC HT1080 cell line was cultured to confluent in Dulbecco's Modified Medium (DMEM) containing 10% fetal-calf serum at 37° C. for 48 hours. Subsequently, the medium of confluent culture was changed to serum-free DMEM medium. To obtain MMP-9, Phorbol-12-myristate-13-acetate (TPA) must be added to this serum-free DMEM medium at a concentration of 50 ng/ml. The TPA treated medium was centrifuged at 3000 rpm for 15 min and the supernatant was concentrated to 450 ml by a Toyo-Roshi UP-20 apparatus with an ultrafiltration membrane. Then, proMMP-9 in this concentrated solution was purified by using columns of Gelatin-Sepharose and Concanavalin A-Sepharose. The pool containing proMMP-9 was dialyzed, concentrated (Toyo-Roshi UP-20) and applied to columns of Sephacryl S-200 and Green A matrix for the separation from TIMPs. The obtained proMMP-9 fraction was activated by TPCK-Trypsin (Final conc. 3 μg/501 μl React Mix.).
as §1, §2, §3, §4, §5, §6

Assay [4] addresses T4, MMP-12 (Homo sapiens, UniProt P39900).
T4 construct: catalytic domain(^100Phe˜^263Gly) was amplified with RT-PCR; His-tag; enterokinase digestion-site; made in house; host or cells: Escherichia coli
The assay is described as follows: Assay for inhibitory activities on MMPs (fluorogenic peptide substrate), MMP-12. To be noted: catalytic domain 100Phe-263Gly; substrate MOCAc-Pro-Leu-Gly-Leu-A2Pr(DNP)-Ala-Arg-NH2. As for the experimental part:
(§7) In regard to MMP-12, catalytic domain(^100Phe˜^263Gly) was amplified with RT-PCR from Human Placenta Total RNA. This was cloned in Escherichia. coli expression vector pTrc99AHE inserted with His-tag sequence and enterokinase digestion-site, induced and expressed by IPTG (Isopropyl-β-D-thiogalactopyranoside) and expressed in a insoluble fraction. Isolation of MMP-12 from an insoluble fraction was carried out by dissolving in modifier (6M urea) by a usual method and purification with metal chelate chromatography (Ni Chelateing Sepharose). And then removing modifier (6M urea) with dialysis and refolding of the enzyme spontaneously gave activated MMP-12.
as §1, §2, §3, §4, §5, §6

The target of assay [5] is T5, MMP-13 (Homo sapiens, UniProt P45452).
T5 construct: catalytic domain (^104Tyr˜^267Gly) was amplified with RT-PCR; His-tag; enterokinase digestion-site; made in house; host or cells: Escherichia coli
Briefly: Assay for inhibitory activities on MMPs (fluorogenic peptide substrate), MMP-13. To be noted: catalytic domain 104Tyr-267Gly; substrate MOCAc-Pro-Leu-Gly-Leu-A2Pr(DNP)-Ala-Arg-NH2. As for the experimental part:
as §7, with “MMP-13, mRNA was prepared from carcinoma cell SW1353 derived from human cartilage stimulate by IL-1, TNF and” for “MMP-12,”, “domain (^104Tyr˜^267Gly)” for “domain(^100Phe˜^263Gly)”, “RT-PCR.” for “RT-PCR from Human Placenta Total RNA.”, “MMP-13” for “MMP-12”, “dialyze” for “dialysis”, “MMP-13.” for “MMP-12.”
as §1, §2, §3, §4, §5, §6

T1 sequence (P22894 99-262): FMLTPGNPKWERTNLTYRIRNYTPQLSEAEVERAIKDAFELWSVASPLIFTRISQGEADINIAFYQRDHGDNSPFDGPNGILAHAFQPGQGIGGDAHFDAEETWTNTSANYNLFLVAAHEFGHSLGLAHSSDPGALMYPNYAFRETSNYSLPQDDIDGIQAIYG
T4 sequence (P39900 100-263): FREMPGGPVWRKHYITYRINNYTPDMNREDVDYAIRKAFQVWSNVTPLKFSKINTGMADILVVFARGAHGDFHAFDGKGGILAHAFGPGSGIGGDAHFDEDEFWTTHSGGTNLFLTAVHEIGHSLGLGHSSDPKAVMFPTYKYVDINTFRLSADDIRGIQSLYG
T3 sequence (P14780 107-707 limits assumed): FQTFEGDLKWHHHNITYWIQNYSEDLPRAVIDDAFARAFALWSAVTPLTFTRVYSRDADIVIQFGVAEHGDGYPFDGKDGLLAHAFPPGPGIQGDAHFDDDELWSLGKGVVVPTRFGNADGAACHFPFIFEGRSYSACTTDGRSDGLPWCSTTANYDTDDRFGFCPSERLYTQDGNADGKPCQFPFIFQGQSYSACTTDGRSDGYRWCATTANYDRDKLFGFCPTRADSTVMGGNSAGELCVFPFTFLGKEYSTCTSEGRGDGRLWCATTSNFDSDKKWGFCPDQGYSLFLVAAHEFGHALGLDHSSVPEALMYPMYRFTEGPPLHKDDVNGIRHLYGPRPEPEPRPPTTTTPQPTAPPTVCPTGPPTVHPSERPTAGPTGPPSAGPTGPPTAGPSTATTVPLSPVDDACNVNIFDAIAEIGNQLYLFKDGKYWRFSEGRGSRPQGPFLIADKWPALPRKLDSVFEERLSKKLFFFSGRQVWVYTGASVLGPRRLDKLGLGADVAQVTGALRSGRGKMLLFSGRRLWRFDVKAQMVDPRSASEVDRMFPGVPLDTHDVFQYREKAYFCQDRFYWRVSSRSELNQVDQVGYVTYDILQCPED

In general, IC50 refers to the concentration needed to halve the response being measured. With `C[C@@H](NS(=O)(=O)c1ccc(-c2ncc(-c3ccc(F)cc3)s2)cc1)C(=O)O` [Compound B-27], the IC50 is 25.2 nM in assay [1]; 0.901 nM in assay [2]; 13.3 nM in assay [3]; 3.29 nM in assay [4]; 15.3 nM in assay [5].
The matching figures for `CC(C)[C@@H](NS(=O)(=O)c1ccc(-c2ncc(-c3ccccc3)s2)cc1)C(=O)O` [Compound B-2]: 15.1 nM, 1.83 nM, 13.8 nM, 2.92 nM and 14.5 nM.
The matching figures for `C[C@@H](NS(=O)(=O)c1ccc(-c2ncc(-c3ccccc3)s2)cc1)C(=O)O` [Compound B-21]: 58.2 nM, 1.47 nM, 19.9 nM, 5.86 nM and 22 nM.
For the compound `COc1ccc(-c2cnc(-c3ccc(S(=O)(=O)N[C@H](C)C(=O)O)cc3)s2)cc1` [Compound B-23], the IC50 was determined as 15.4 nM in assay [1]; 0.479 nM in assay [2]; 16.2 nM in assay [3]; 1.37 nM in assay [4]; 2.04 nM in assay [5].
The matching figures for `CC(C)[C@@H](NS(=O)(=O)c1ccc(-c2ncc(-c3ccc(Br)cc3)o2)cc1)C(=O)O` [Compound A-27]: 57.3 nM, 6.08 nM, 67.9 nM, 1.55 nM and 54.5 nM.
On to `CC(C)[C@H](NS(=O)(=O)c1ccc(-c2ncc(-c3ccccc3)s2)cc1)C(=O)O` [Compound B-3], for which the IC50 is 18.9 nM in assay [1]; 7.45 nM in assay [2]; 70.5 nM in assay [3]; 3.16 nM in assay [4]; 15 nM in assay [5].
`O=C(O)[C@@H](Cc1ccccc1)NS(=O)(=O)c1ccc(-c2ncc(-c3ccc(F)cc3)o2)cc1` [Compound A-19]: the IC50 in assay [1] was determined as 113 nM; in assay [2], 14.4 nM; in assay [3], 247 nM; in assay [4], 7.71 nM; in assay [5] it was 113 nM.
Consider `COc1ccc(-c2cnc(-c3ccc(S(=O)(=O)N[C@H](CC(C)C)C(=O)O)cc3)s2)cc1` [Compound B-34], for which the IC50 in assay [1] was 24.9 nM; in assay [2], 1.63 nM; in assay [3], 53.6 nM; in assay [4], 3.35 nM; in assay [5] it was 6.82 nM.
The matching figures for `O=C(O)C[C@@H](NS(=O)(=O)c1ccc(-c2ncc(-c3ccc(Cl)cc3)s2)cc1)C(=O)O` [Compound B-38]: 104 nM, 2.14 nM, 11.6 nM, 2.54 nM and 7.43 nM.
For `CC(C)C[C@@H](NS(=O)(=O)c1ccc(-c2ncc(-c3ccc(Cl)cc3)s2)cc1)C(=O)O` [Compound B-31], the IC50 in assay [1] came out at 144 nM; in assay [2] it was 3.57 nM; in assay [3], 35.7 nM; in assay [4], 4.55 nM; in assay [5], 32.6 nM.
Consider `C[C@@H](NS(=O)(=O)c1ccc(-c2ncc(-c3ccc4ccccc4c3)o2)cc1)C(=O)O` [Compound A-46], for which the IC50 in assay [1] turned out to be 279 nM; in assay [2] it was 7.16 nM; in assay [3], 157 nM; in assay [4], 2.25 nM; in assay [5], 19 nM.
In the case of `C[C@@H](NS(=O)(=O)c1ccc(-c2ncc(-c3ccc(Br)cc3)o2)cc1)C(=O)O` [Compound A-10], the IC50 in assay [1] came to 97.4 nM; in assay [2] it was 5.46 nM; in assay [3], 135 nM; in assay [4] it was 2.42 nM; in assay [5], 59.2 nM.
As for `CC(C)[C@@H](NS(=O)(=O)c1ccc(-c2ncc(-c3ccc(Cl)cc3)s2)cc1)C(=O)O` [Compound B-4], the concentration for half-maximal inhibition (IC50) in assay [1] was determined as 56.9 nM; in assay [2] it was 1.27 nM; in assay [3], 5.71 nM; in assay [4], 3.06 nM; in assay [5], 5.51 nM.
